The values that follow come from US20260062441A1, “TUMOR-SEEKING GLUCOSE-DENDRONS FOR THE DELIVERY OF CHEMOTHERAPEUTICS AND IMAGING AGENT TO CANCER CELLS” (THE BOARD OF TRUSTEES OF THE UNIVERSITY OF ILLINOIS, priority 2022, published 2026).

Data set [1] can be described thus: Log D7.4 measurements (octanol/PBS partition). To be noted: octanol/PBS pH 7.4. The format is physicochemical. On the procedure:
Log D7.4 Measurements. Log D measurements were conducted in technical triplicate and 5 experimental replicates. Samples at a known concentration (n=3) were added to Eppendorf tubes containing PBS (pH=7.4, 500 μL) and octanol (500 μL). The Eppendorf tubes were each vortexed for 30 seconds and subsequently subjected to microcentrifuge for 1 minute. Then the PBS and octanol layers were pipetted into a clear 96-well plate. The absorbance values were taken using a SpectraMax M2 plate reader. The log of (dye absorbance in octanol/dye absorbance in PBS) was calculated and averaged across different concentrations to generate the log D7.4.

Data set [2] is described as follows: Photophysical characterization. The format is physicochemical. To be noted: for ε / λabs / λem: 3:7 v/v MeCN:PBS (pH=7.4); for PABF: PA Brightness Factor; for Φ: relative to dimethoxy aza-BODIPY. On the procedure:
Photophysical Characterization. Extinction coefficients and fluorescence quantum yields were acquired in experimental triplicates. Extinction coefficients were measured by performing serial dilutions of the compounds in 3:7 v/v MeCN:PBS (pH=7.4) within the linear range (absorbance values between 0.05-1.5). Reported fluorescence quantum yields are relative quantum yields compared to dimethoxy aza-BODIPY (Φ=0.36, chloroform). The compounds were titrated into acetonitrile or 3:7 MeCN/PBS (pH=7.4) such that their absorbance values were kept below 0.1 to prevent secondary absorbance events. The refractive index of 3:7 v/v MeCN:PBS (pH=7.4) was measured to be 1.343. Characterization of mvpCu and t-mvpCu were conducted in 1:1 v/v DMF:HEPES (50 mM, pH=7.4).

For data set [3] the following is noted: chloroform; cited from earlier work.
The test system of data set [4] is 4T1 orthotopic breast cancer. Briefly: In vivo fluorescence imaging of tumor-bearing mice. Further details: species or system BALB/c mice. Conditions: for fluorescence signal enhancement of the tumor site relative to initial background scan: 1.2 mg/kg retroorbital. On the procedure:
In Vivo Imaging. Before all imaging, hair on the bottom half of mice were removed via an electric razor and depilatory cream. In both FL and PA imaging, a background scan was taken of each mouse before injection. For PA imaging experiments, mice were allowed to equilibrate in the water tank for 10 min, and all scans were collected on H2O mode at 34° C.
Fluorescence Imaging with mvGlu-AB2 and mvGlu-AB3. 4T1 cells were trypsinized, neutralized with growth media, and counted on a Countess II FL Cell Counter (Invitrogen, Thermo Fisher Scientific). Cells were spun down, media was aspirated, and a solution was made in 1:1 serum-free RPMI media to VitroGel® hydrogel. Mice were injected in the mammary fat pad with 300,000 cells (50 μL) of the cell solution. Tumors grew for around 1.5-2 weeks and the mice were imaged once tumors reached 100 mm^3. Dyes (1.2 mg/kg) were dissolved in 0.9% saline (5% DMSO) and injected retroorbitally. Mice were imaged using the CRi Maestro In-Vivo Fluorescence Imaging System at timepoints=0, 6, 8, 12, 16, 24, and 48 hours. Excitation occurred at 680 nm, and light was collected from 690-850 nm (n=3).

In a further data set the test system is 4T1 cells. Briefly: MTT cytotoxicity assay. In kind it is cell-based, murine. To be noted: 4T1, up to 15 μM, 6-hour incubation. On the procedure:
(§1) MTT Cytotoxicity Assay. A 96-well plate was seeded with 30,000 cells per well and incubated at 37° C. with 5% CO2 for 24-48 hours (˜70% confluent). The media was removed and replaced with fresh serum-free medium (200 μL) containing vehicle control (DMSO) or dye (4, 6, 10, or 15 μM). After 4 hours, the media was removed and replaced with a 20:1 mixture of PBS and (3-(4,5-dimethylthiazol-2-yl)-2,5-diphenyl-tetrazolium bromide (MTT, 5 mg/mL stock in PBS). The cells were incubated for 2 hours under the same conditions, and then the media was removed, replaced with DMSO (200 μL), and the absorbance of each well was recorded at 555 nm on a SpectraMax M2 plate reader. Percent viability was calculated relative to the vehicle control (n=8).
A general note: Tetrazolium dyes change colour on reduction, which living cells bring about.

In data set [5] the test system is 4T1 orthotopic breast cancer. Briefly: In vivo PA imaging with mvGlu-AB2. Details: species or system BALB/c mice. Conditions: 6 hr, spectral unmixing. The procedure: In Vivo Imaging. Before all imaging, hair on the bottom half of mice were removed via an electric razor and depilatory cream. In both FL and PA imaging, a background scan was taken of each mouse before injection. For PA imaging experiments, mice were allowed to equilibrate in the water tank for 10 min, and all scans were collected on H2O mode at 34° C. PA Imaging with mvGlu-AB2. 4T1 cells were trypsinized, neutralized with growth media, and counted on a Countess II FL Cell Counter (Invitrogen, Thermo Fisher Scientific). Cells were spun down, media was aspirated, and a solution was made in 1:1 serum-free RPMI media to Geltrex™ LDEV-Free, hESC-Qualified, Reduced Growth Factor Basement Membrane Matrix. Mice were injected in the mammary fat pad with 250,000 cells (50 μL) of the cell solution. Tumors grew for around 1.5-2 weeks and the mice were imaged once tumors reached 100 mm^3. mvGluAB-2 was reconstituted in 0.9% saline (5% DMSO) and injected retroorbitally. PA images were taken at timepoints=0 and 6 hours in 5 nm increments from 660-700 nm. Images were spectrally unmixed from hemoglobin, deoxyhemoglobin, and melanin (n=4).

The subject of another data set is A549 cells. Briefly: MTT cytotoxicity assay. The format is cell-based, human. To be noted: A549, up to 15 μM, 6-hour incubation. On the procedure: as §1
For data set [6], the system named is A549 human lung cancer cells. Briefly: Cellular uptake studies (epifluorescence imaging). In kind it is cell-based. On the procedure: Cell Culture. A549 lung cancer cells and 4T1 murine breast cancer cells were acquired from ATCC. A549 cells were cultured in Ham's F-12K Medium containing 10% FBS and 1% penicillin streptomycin solution, and 4T1 cells were cultured in RPMI-1640 Medium containing 10% FBS and 1% penicillin streptomycin solution. Cells were incubated at 37° C. with 5% CO2. Experiments were performed in 8-well plates (Nuc Lab-Tek Chambered Coverglass, Thermo Scientific) or 96-well plates (Nuclon Delta Surface Flat Bottom, Thermo Scientific).
Cellular Uptake Studies. 8-well borosilicate plates were prepared with poly-L-Lysine coating and seeded with 50,000 cells per well and incubated at 37° C. with 5% CO2 for 24 hours (˜60% confluent). Serum-free media containing mvGlu-AB2 (2 μM), 15 mM Glucose, mvGlu-AB2 (2 μM)+15 mM Glucose, L-mvGlu-AB2 (2 μM), dimethoxy aza-BODIPY (2 μM), or vehicle (DMSO) were prepared. Competition glucose wells were preincubated with 15 mM glucose in serum-free media for 30 minutes. […] The media was removed and replaced with PBS. Cells were imaged using an EVOS FL epifluorescence microscope with a Cy7 filter cube. Four experimental replicates and 3 technical replicates were taken.
Quantification of Cell Imaging Data. In FIJI (ImageJ), ROIs were drawn around representative cells and the integrated density (area×mean gray value) was measured. The total cell fluorescence was calculated by subtracting the integrated density of the cell by the background integrated fluorescence. Technical replicates (n=3) in each well were quantified as the average of 3 cells. Values are reported as the average (+SD) of […] (n=4). Colocalization Studies with mvGlu-AB2. 8-well borosilicate plates were prepared with poly-L-Lysine coating and seeded with 45,000 cells per well and incubated at 37° C. with 5% CO2 for 24 hours (˜60% confluent). Serum-free media containing mvGlu-AB2 (1 μM) was prepared. Cells were incubated for 30 minutes with mvGlu-AB2. The cells were washed 1× with PBS and incubated with the relevant organelle tracker according to the manufacturer recommended protocol. Following incubation with tracker, the cells were washed 1× with PBS. Cells were imaged using an EVOS FL epifluorescence microscope. Lysotracker® Green and Mitotracker® Green were imaged using a GFP filter cube, DAPI was imaged using a DAPI filter cube, and mvGlu-AB2 was image with a Cy7 filter cube. Four experimental replicates and 3 technical replicates were taken.

In data set [1] (Table 2), `COc1ccc(C2=[N+]3C(=Nc4c(-c5ccccc5)cc(-c5ccc(OC)cc5)n4[B-]3(F)F)C(c3ccccc3)=C2)cc1` [AB-OMe2, reference compound] came in with a logD7.4 of 2.51 ± 0.92. In data set [1], the logD7.4 was 2.51±0.92. Further, the “extinction coefficient ε” value in data set [2] was found to be 3000 M⁻¹ cm⁻¹. For the same compound, in data set [2] (Table 1b), the ε is 3400 M/cm, the λabs stood at 689 nm, the λem came to 710 nm and the PABF is 0.34 ×10^4. For the same compound, the Φ in data set [2] (Table 1b) was found to be 0.014. In addition, in data set [2] (Table 2), the ε came to 3400 M/cm, the λabs turned out to be 689 nm, the λem was found to be 710 nm and the PABF is 0.34 × 10^4. Moreover, the Φ in data set [2] (Table 2) came to 0.014. For the same compound, the “fluorescence quantum yield Φ of reference standard” value in data set [3] is on record as 0.36.
Compound `COc1ccc(-c2cc(-c3ccccc3)c3n2[B-](OC)(OC)[N+]2=C(c4ccc(OCc5cn(C(COC6OC(CO)C(O)C(O)C6O)COC6OC(CO)C(O)C(O)C6O)nn5)cc4)C=C(c4ccccc4)C2=N3)cc1` (centres unmarked) [mvGlu-AB1] returned a logD7.4 in data set [1] (Table 2) of 0.75 ± 0.02. In data set [1], this compound had a logD7.4 of 0.75±0.02. Further, in data set [2] (Table 1b), the ε worked out at 18000 M/cm, the λabs is 675 nm, the λem is 710 nm and the PABF is listed as 1.6 ×10^4. In data set [2] (Table 1b), this compound displayed a Φ of 0.10. In data set [2] (Table 2), the ε was 18000 M/cm, the λabs turned out to be 675 nm, the λem worked out at 710 nm and the PABF is on record as 1.6 × 10^4. The same compound gave a Φ in data set [2] (Table 2) of 0.10.
For the compound `CO[B-]1(OC)n2c(-c3ccc(OCc4cn(C(COC5OC(CO)C(O)C(O)C5O)COC5OC(CO)C(O)C(O)C5O)nn4)cc3)cc(-c3ccccc3)c2N=C2C(c3ccccc3)=CC(c3ccc(OCc4cn(C(COC5OC(CO)C(O)C(O)C5O)COC5OC(CO)C(O)C(O)C5O)nn4)cc3)=[N+]21` (centres unmarked) [mvGlu-AB2], in data set [1] (Table 2), the logD7.4 is reported as −1.12 ± 0.16. The compound also displayed a logD7.4 in data set [1] of −1.12±0.16. Besides, in data set [4] (after 8 hours), the “fluorescence signal enhancement of the tumor site relative to initial background scan” value is recorded as around 2 fold. The “extinction coefficient ε” value in data set [2] came out at 26000 M⁻¹ cm⁻¹. Further, in data set [2] (Table 1b), the ε turned out to be 26000 M/cm, the λabs was 679 nm, the λem was determined as 710 nm and the PABF was 2.1 ×10^4. The Φ in data set [2] (Table 1b) is reported as 0.19. Besides, in data set [2] (Table 2), the ε was determined as 26000 M/cm, the λabs came out at 679 nm, the λem was 710 nm and the PABF is listed as 2.1 × 10^4. Besides, the Φ in data set [2] (Table 2) was 0.19. Besides, in data set [2] (ratio to AB-OMe2), the “ε higher than AB-OMe2” value stood at 8.7 fold. Besides, in the data set on 4T1 cells, the “cell viability (MTT)” value is given as “no loss in cell viability”. Also, the “PA signal difference of tumor prior to and after injection” value in data set [5] was determined as 4.1 fold. Also, the “cell viability (MTT)” value in the data set on A549 cells was “no loss in cell viability”. Further, the “low dye concentration at which a clear fluorescent signature was apparent” value in data set [6] (A549) was 50 nM. Also, the “brighter than cells treated with l-mvGlu isomer” value in data set [6] (A549, 2 μM) is 3 fold. Moreover, the “signal intensity higher when glucose was absent” value in data set [6] (A549, dye 2 μM, vs pre-incubation with glucose 15 mM) is given as 2 fold. For the same compound, the “fluorescence signal intensity brighter than AB-OMe2-treated cells” value in data set [6] (A549, imaged after 20 minutes) is on record as above 1000 fold.
With `COc1ccc(C2=[N+]3C(=Nc4c(-c5ccc(OCc6cn(C(COC7OC(CO)C(O)C(O)C7O)COC7OC(CO)C(O)C(O)C7O)nn6)cc5)cc(-c5ccc(OC)cc5)n4[B-]3(OC)OC)C(c3ccc(OCc4cn(C(COC5OC(CO)C(O)C(O)C5O)COC5OC(CO)C(O)C(O)C5O)nn4)cc3)=C2)cc1` (centres unmarked) [mvGlu-AB3], in data set [1] (Table 2), the logD7.4 is recorded as −0.71 ± 0.11. This compound also came in with a logD7.4 in data set [1] of −0.71±0.11. The “in vivo imaging results compared with mvGlu-AB2” value in data set [4] (FIGS. 17-18) was “comparable”. For the same compound, in data set [4] (after 12 hours), the “fluorescence signal enhancement of the tumor site relative to initial background scan” value is around 2 fold. Further, in data set [2] (Table 1b), the ε was 24000 M/cm, the λabs came to 681 nm, the λem came to 712 nm and the PABF is recorded as 1.7 ×10^4. In data set [2] (Table 1b), this compound registered a Φ of 0.31. In data set [2] (Table 2), the ε is 24000 M/cm, the λabs was found to be 681 nm, the λem stood at 712 nm and the PABF is 1.7 × 10^4. For the same compound, the Φ in data set [2] (Table 2) came to 0.31.
